Laboratory results reported in PubChem BioAssay (NCI).
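Grown in 96-well plates, cells were treated for 48 hours with each compound at five concentrations. Insufficient inhibition: endpoint recorded as highest concentration tested. TGI: concentration producing complete growth inhibition.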

Columns and labels:
Assay in all cases: NCI tumour cell line growth inhibition, 48 h
CAKI-1 renal = system: CAKI-1 renal
HT29 colon = system: HT29 colon
NCI-H226 lung = system: NCI-H226 lung
HCT-15 colon = system: HCT-15 colon
KM12 colon = system: KM12 colon
CCRF-CEM leukemia = system: CCRF-CEM leukemia
U251 CNS = system: U251 CNS
COLO 205 colon = system: COLO 205 colon
UO-31 renal = system: UO-31 renal
NCI-H522 lung = system: NCI-H522 lung
SNB-75 CNS = system: SNB-75 CNS
DU-145 prostate = system: DU-145 prostate
K-562 leukemia = system: K-562 leukemia
MALME-3M melanoma = system: MALME-3M melanoma
EKVX NSCLC = system: EKVX NSCLC
SN12C renal = system: SN12C renal
SF-295 CNS = system: SF-295 CNS
PC-3 prostate = system: PC-3 prostate
OVCAR-4 ovarian = system: OVCAR-4 ovarian
NCI/ADR-RES ovarian = system: NCI/ADR-RES ovarian
UACC-257 melanoma = system: UACC-257 melanoma
TK-10 renal = system: TK-10 renal
SW-620 colon = system: SW-620 colon
SK-MEL-2 melanoma = system: SK-MEL-2 melanoma
SK-OV-3 ovarian = system: SK-OV-3 ovarian
MDA-N = system: MDA-N
A498 renal = system: A498 renal
RXF 393 renal = system: RXF 393 renal
OVCAR-8 ovarian = system: OVCAR-8 ovarian
HS 578T breast = system: HS 578T breast
HCT-116 colon = system: HCT-116 colon
786-0 renal = system: 786-0 renal
LOX IMVI melanoma = system: LOX IMVI melanoma
NCI-H460 lung = system: NCI-H460 lung
IGROV1 ovarian = system: IGROV1 ovarian
ACHN renal = system: ACHN renal
HOP-92 NSCLC = system: HOP-92 NSCLC
MDA-MB-231 breast = system: MDA-MB-231 breast
M14 melanoma = system: M14 melanoma
NCI-H23 lung = system: NCI-H23 lung
T-47D breast = system: T-47D breast
MDA-MB-435 = system: MDA-MB-435
BT-549 breast = system: BT-549 breast
MOLT-4 leukemia = system: MOLT-4 leukemia
SF-539 CNS = system: SF-539 CNS
HOP-62 NSCLC = system: HOP-62 NSCLC
OVCAR-3 ovarian = system: OVCAR-3 ovarian
SK-MEL-28 melanoma = system: SK-MEL-28 melanoma
SF-268 CNS = system: SF-268 CNS
RPMI-8226 leukemia = system: RPMI-8226 leukemia
A549 NSCLC = system: A549 NSCLC
SK-MEL-5 melanoma = system: SK-MEL-5 melanoma
MCF7 breast = system: MCF7 breast
OVCAR-5 ovarian = system: OVCAR-5 ovarian
SNB-19 CNS = system: SNB-19 CNS
SR leukemia = system: SR leukemia

For `CC(C)(C)OC(=O)N1C/C=C\C(=O)C2(OCCO2)c2ccccc21`, the TGI (CAKI-1 renal) was > 100 µM, the TGI (HT29 colon) was 42 µM and the TGI (NCI-H226 lung) was 38.9 µM. The TGI (HCT-15 colon) was > 100 µM, the TGI (KM12 colon) was > 100 µM and the TGI (CCRF-CEM leukemia) was 57 µM. For the same compound, the TGI (U251 CNS) was > 100 µM, the TGI (COLO 205 colon) was 35.7 µM and the TGI (UO-31 renal) was 43.1 µM. It also gave a TGI (NCI-H522 lung) of 78.8 µM, a TGI (SNB-75 CNS) of 99.2 µM and a TGI (DU-145 prostate) of 81.8 µM. For the same compound, the TGI (K-562 leukemia) was 57.1 µM, the TGI (MALME-3M melanoma) was 48.1 µM and the TGI (EKVX NSCLC) was > 100 µM. For the same compound, the TGI (SN12C renal) was 88.9 µM, the TGI (SF-295 CNS) was 73.9 µM and the TGI (PC-3 prostate) was > 100 µM. The TGI (OVCAR-4 ovarian) was > 100 µM, the TGI (NCI/ADR-RES ovarian) was > 100 µM and the TGI (UACC-257 melanoma) was 39.3 µM. It also gave a TGI (TK-10 renal) of 47.3 µM, a TGI (SW-620 colon) of 58.7 µM and a TGI (SK-MEL-2 melanoma) of 68.5 µM. For the same compound, the TGI (SK-OV-3 ovarian) was 99.2 µM, the TGI (MDA-N) was 48.3 µM and the TGI (A498 renal) was > 100 µM. For the same compound, the TGI (RXF 393 renal) was 37.8 µM, the TGI (OVCAR-8 ovarian) was 86.6 µM and the TGI (HS 578T breast) was > 100 µM. It also gave a TGI (HCT-116 colon) of 34.9 µM, a TGI (786-0 renal) of 56.9 µM and a TGI (LOX IMVI melanoma) of 32.6 µM. For the same compound, the TGI (NCI-H460 lung) was 50.5 µM, the TGI (IGROV1 ovarian) was 33.4 µM and the TGI (ACHN renal) was > 100 µM. It also gave a TGI (HOP-92 NSCLC) of 44.2 µM, a TGI (MDA-MB-231 breast) of 40.8 µM and a TGI (M14 melanoma) of 65.1 µM. For the same compound, the TGI (NCI-H23 lung) was > 100 µM, the TGI (T-47D breast) was 49.5 µM and the TGI (MDA-MB-435) was 34 µM. The TGI (BT-549 breast) was 51.4 µM, the TGI (MOLT-4 leukemia) was 76.5 µM and the TGI (SF-539 CNS) was 50.3 µM. For the same compound, the TGI (HOP-62 NSCLC) was > 100 µM, the TGI (OVCAR-3 ovarian) was 29.6 µM and the TGI (SK-MEL-28 melanoma) was 49.5 µM. For the same compound, the TGI (SF-268 CNS) was > 100 µM, the TGI (RPMI-8226 leukemia) was 54.1 µM and the TGI (A549 NSCLC) was > 100 µM. For the same compound, the TGI (SK-MEL-5 melanoma) was 31.7 µM, the TGI (MCF7 breast) was 96.2 µM and the TGI (OVCAR-5 ovarian) was > 100 µM. For the same compound, the TGI (SNB-19 CNS) was > 100 µM and the TGI (SR leukemia) was 77.9 µM.
